Experimental data reported in the supplement of paper PMC10307832.

What was measured:
Assay in all cases: relative viability (nuclei count vs DMSO), 5 days (fraction); higher = more cells survive
[1] = compound: CC1=CC(=NN1)NC2=CC(=NC(=N2)/C=C/C3=CC=CC=C3)N4CCN(CC4)C + CC(=O)c1c(C)c2cnc(Nc3ccc(N4CCNCC4)cn3)nc2n(C2CCCC2)c1=O [Palbociclib] (partner 0.5 µM)
Method in brief: (§1)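 Nuclei were stained with Hoechst during a one-step fixation (final 0.05% Triton X-100, 1% formaldehyde, 1 ug/ml Hoechst) carried out 5 days after dosing, then counted on 4× images. The cells, lung cancer lines in 1536-well plates, had been dosed by pin tool the day after seeding with one drug alone or a fixed anchor-drug dose plus five library-drug doses (not always all listed) in √10 steps. Relative viability is the nuclei count in treated wells divided by that in vehicle wells, and each value is the median of duplicate plates.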

[2] = compound: CC(C)C[C@H](NC(=O)[C@H](Cc1ccccc1)NC(=O)c1cnccn1)B(O)O [Bortezomib] + Cc1nc(Nc2ncc(C(=O)Nc3c(C)cccc3Cl)s2)cc(N2CCN(CCO)CC2)n1 [Dasatinib] (partner 0.075 µM)
Method in brief: as §1

[3] = compound: CC1=CC(=NN1)NC2=CC(=NC(=N2)/C=C/C3=CC=CC=C3)N4CCN(CC4)C + Nc1nc2[nH]cc(CCc3ccc(C(=O)N[C@@H](CCC(=O)O)C(=O)O)cc3)c2c(=O)[nH]1 [Pemetrexed] (partner 0.2 µM)
Method in brief: as §1

[4] = compound: CC1=CC(=NN1)NC2=CC(=NC(=N2)/C=C/C3=CC=CC=C3)N4CCN(CC4)C
Method in brief: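 Nuclei counted with MetaXpress define viability as the ratio of treated to vehicle wells, given as a median across plates. The lung cancer cell lines were in 1536-well plates, pinned with five √10-spaced library-drug doses and imaged at 4× after 5 days and Hoechst staining. Plates passed with control CV below 25% and at least one doubling.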

Row | Cell Line | relative viability ([1]; first compound 0.08 µM) | relative viability ([1]; first compound 0.253 µM) | relative viability ([1]; first compound 0.8 µM) | relative viability ([1]; first compound 2.53 µM) | relative viability ([1]; first compound 8 µM) | relative viability ([2]; first compound 0.0002 µM) | relative viability ([2]; first compound 0.000632 µM) | relative viability ([2]; first compound 0.002 µM) | relative viability ([2]; first compound 0.006325 µM) | relative viability ([2]; first compound 0.02 µM) | relative viability ([3]; first compound 0.08 µM) | relative viability ([3]; first compound 0.253 µM) | relative viability ([3]; first compound 0.8 µM) | relative viability ([3]; first compound 2.53 µM) | relative viability ([3]; first compound 8 µM) | relative viability ([4]; 0.08 µM) | relative viability ([4]; 0.253 µM) | relative viability ([4]; 0.8 µM) | relative viability ([4]; 2.53 µM) | relative viability ([4]; 8 µM)
1 | NCI-H23 | 0.483 | 0.505 | 0.409 | 0.158 | 0.123 | 0.913 | 0.976 | 0.76 | 0.224 | 0.108 | 0.508 | 0.768 | 0.542 | 0.215 | 0.118 | 0.891 | 0.886 | 0.796 | 0.225 | 0.144
2 | NCI-H322M | 0.444 | 0.572 | 0.458 | 0.336 | 0.287 | 0.26 | – | 0.253 | 0.229 | 0.286 | 0.615 | 0.622 | 0.616 | 0.308 | 0.273 | 0.951 | 0.969 | 0.847 | 0.413 | 0.281
3 | NCI-H358 | 0.12 | 0.144 | 0.133 | 0.0673 | 0.072 | 0.162 | 0.153 | 0.164 | 0.084 | 0.073 | 0.163 | 0.172 | 0.173 | 0.128 | 0.0753 | 0.847 | 0.92 | 0.787 | 0.203 | 0.11
4 | NCI-H441 | 0.169 | 0.214 | 0.203 | 0.115 | 0.103 | 0.646 | 0.507 | 0.282 | 0.136 | 0.119 | 0.24 | 0.25 | 0.273 | 0.221 | 0.137 | 1.01 | 1.01 | 0.931 | 0.249 | 0.143
5 | NCI-H460 | 0.159 | 0.145 | 0.149 | 0.0195 | 0.0182 | 0.437 | 0.507 | 0.514 | 0.342 | 0.0305 | 0.0607 | 0.0584 | 0.0607 | 0.0513 | 0.0228 | 1.01 | 1.03 | 1.01 | 0.597 | 0.0321
6 | NCI-H520 | 0.209 | 0.214 | 0.184 | 0.142 | 0.113 | 0.173 | 0.207 | 0.18 | 0.201 | 0.179 | 0.643 | 0.688 | 0.322 | 0.14 | 0.0969 | 0.975 | 1.04 | 0.871 | 0.261 | 0.126
7 | NCI-H522 | 1.04 | 1.19 | 1.31 | 0.726 | 0.357 | 0.875 | 0.79 | 0.965 | 0.4 | 0.393 | 0.992 | 0.848 | 0.957 | 0.894 | 0.622 | 0.917 | 0.89 | 0.962 | 0.554 | 0.444
8 | NCI-H647 | 0.429 | 0.365 | 0.332 | 0.115 | 0.0496 | 0.203 | 0.156 | 0.188 | 0.0197 | 0.017 | 0.2 | 0.174 | 0.168 | 0.0748 | 0.0585 | 0.868 | 1.05 | 0.935 | 0.14 | 0.056
9 | NCI-H661 | 0.4 | 0.41 | 0.404 | 0.27 | 0.269 | 0.851 | 0.836 | 0.773 | 0.331 | 0.168 | 0.884 | 0.898 | 0.855 | 0.576 | 0.326 | 0.986 | 0.958 | 1.03 | 0.708 | 0.356
10 | NCI-H838 | 0.243 | 0.241 | 0.169 | 0.127 | 0.106 | 0.271 | 0.261 | 0.32 | 0.209 | 0.16 | 0.235 | 0.25 | 0.213 | 0.166 | 0.111 | 0.963 | 1.03 | 0.846 | 0.214 | 0.133
11 | NCI-H1355 | 0.442 | 0.444 | 0.387 | 0.309 | 0.165 | 0.69 | 0.753 | 0.813 | 0.18 | 0.156 | 1.04 | 1.01 | 1.01 | 0.902 | 0.546 | 0.96 | 0.965 | 0.955 | 0.647 | 0.159
12 | NCI-H1395 | 0.557 | 0.635 | 0.628 | 0.433 | 0.285 | 0.428 | 0.41 | 0.427 | 0.352 | 0.306 | 0.875 | 0.814 | 0.714 | 0.357 | 0.233 | 0.916 | 1.04 | 0.882 | 0.431 | 0.279
13 | NCI-H1437 | 0.304 | 0.317 | 0.307 | 0.231 | 0.152 | 0.335 | 0.374 | 0.486 | 0.129 | 0.11 | 0.422 | 0.325 | 0.295 | 0.212 | 0.162 | 1.02 | 1.06 | 1.03 | 0.757 | 0.346
14 | NCI-H1650 | 0.285 | 0.414 | 0.351 | 0.201 | 0.0872 | 0.354 | 0.302 | 0.181 | 0.197 | 0.207 | 0.37 | 0.373 | 0.379 | 0.268 | 0.146 | 0.86 | 1.05 | 0.972 | 0.185 | 0.101
